This is an account of results in patent US20210207081A1, “MATURE AIRWAY ORGANOIDS, METHODS OF MAKING AND USES THEREOF” (priority 2018, published 2021).

The test relates to H7N9/Ah virus. In kind it is cell-based, Influenza A virus A/Anhui/1/2013(H7N9).

In the case of `NCCc1ccc(S(=O)(=O)F)cc1` [AEBSF], the “replication of H7N9/Ah virus” value is recorded as “significantly restricted the active replication of H7N9/Ah virus”.
